In ChEMBL document CHEMBL3734723, “Synthesis and anticancer activity of 6-heteroarylcoumarins” (2015):

What was measured:
Type in all cases: functional
[1] = tested on: CCRF-CEM; assay: Growth inhibition of human CCRF-CEM cells incubated for 48 hrs by sulforhodamine B assay; details: for CC50: read-out: LC50 (the source's name)
[2] = tested on: A549; assay: Growth inhibition of human A549 cells incubated for 48 hrs by sulforhodamine B assay; details: A549, 48 h; for CC50: read-out: LC50 (the source's name)
[3] = tested on: NCI-H226; assay: Growth inhibition of human NCI-H226 cells incubated for 48 hrs by sulforhodamine B assay; details: NCI-H226, 48 h; for CC50: read-out: LC50 (the source's name)
[4] = tested on: NCI-H23; assay: Growth inhibition of human NCI-H23 cells incubated for 48 hrs by sulforhodamine B assay; details: NCI-H23, 48 h; for CC50: read-out: LC50 (the source's name)
[5] = tested on: NCI-H522; assay: Growth inhibition of human NCI-H522 cells incubated for 48 hrs by sulforhodamine B assay; details: NCI-H522, 48 h; for CC50: read-out: LC50 (the source's name)
[6] = Growth inhibition of human HCT15 cells incubated for 48 hrs by sulforhodamine B assay; details: HCT-15, 48 h; for CC50: read-out: LC50 (the source's name)
[7] = Growth inhibition of human SNB19 cells incubated for 48 hrs by sulforhodamine B assay; details: SNB-19, 48 h; for CC50: read-out: LC50 (the source's name)
[8] = tested on: M14; assay: Growth inhibition of human M14 cells incubated for 48 hrs by sulforhodamine B assay; details: M14, 48 h; for CC50: read-out: LC50 (the source's name)
[9] = Growth inhibition of human OVCAR3 cells incubated for 48 hrs by sulforhodamine B assay; details: OVCAR-3, 48 h; for CC50: read-out: LC50 (the source's name)
[10] = Growth inhibition of human OVCAR5 cells incubated for 48 hrs by sulforhodamine B assay; details: OVCAR-5, 48 h; for CC50: read-out: LC50 (the source's name)
[11] = Growth inhibition of human OVCAR8 cells incubated for 48 hrs by sulforhodamine B assay; details: OVCAR-8, 48 h; for CC50: read-out: LC50 (the source's name)
[12] = tested on: 786-0; assay: Growth inhibition of human 786-0 cells incubated for 48 hrs by sulforhodamine B assay; details: 786-0, 48 h; for CC50: read-out: LC50 (the source's name)
[13] = tested on: SN12C; assay: Growth inhibition of human SN12C cells incubated for 48 hrs by sulforhodamine B assay; details: for CC50: read-out: LC50 (the source's name)
[14] = Growth inhibition of human PC3 cells incubated for 48 hrs by sulforhodamine B assay; details: PC-3, 48 h; for CC50: read-out: LC50 (the source's name)
[15] = Growth inhibition of human DU145 cells incubated for 48 hrs by sulforhodamine B assay; details: DU-145, 48 h; for CC50: read-out: LC50 (the source's name)
[16] = Growth inhibition of human BT549 cells incubated for 48 hrs by sulforhodamine B assay; details: BT-549, 48 h; for CC50: read-out: LC50 (the source's name)
[17] = Growth inhibition of human leukemia cells after 48 hrs by sulforhodamine B assay; details: Leukemia cell; for CC50: read-out: LC50 (the source's name)
[18] = Growth inhibition of human non-small cell lung cancer cells after 48 hrs by sulforhodamine B assay; details: Cancer cell lines; for CC50: read-out: LC50 (the source's name)
[19] = Growth inhibition of human prostate cancer cells after 48 hrs by sulforhodamine B assay; details: Cancer cell lines; for CC50: read-out: LC50 (the source's name)
[20] = tested on: K562; assay: Cytotoxicity against human K562 cells assessed as cell growth at 10 uM incubated for 48 hrs by sulforhodamine B assay; details: K562, 48 h, read-out: Activity
[21] = tested on: SR; assay: Cytotoxicity against human SR cells assessed as cell growth at 10 uM incubated for 48 hrs by sulforhodamine B assay; details: read-out: Activity
[22] = Cytotoxicity against human UACC62 cells assessed as cell growth at 10 uM incubated for 48 hrs by sulforhodamine B assay; details: UACC-62, 48 h, read-out: Activity
[23] = tested on: SK-MEL-5; assay: Cytotoxicity against human SK-MEL-5 cells assessed as cell growth at 10 uM incubated for 48 hrs by sulforhodamine B assay; details: SK-MEL-5, 48 h, read-out: Activity
[24] = tested on: MDA-MB-468; assay: Cytotoxicity against human MDA-MB-468 cells assessed as cell growth at 10 uM incubated for 48 hrs by sulforhodamine B assay; details: MDA-MB-468, 48 h, read-out: Activity
[25] = tested on: NCI-H460; assay: Cytotoxicity against human NCI-H460 cells assessed as cell growth at 10 uM incubated for 48 hrs by sulforhodamine B assay; details: NCI-H460, 48 h, read-out: Activity
[26] = Cytotoxicity against human HOP92 cells assessed as cell growth at 10 uM incubated for 48 hrs by sulforhodamine B assay; details: HOP-92, 48 h, read-out: Activity
[27] = tested on: KM12; assay: Cytotoxicity against human KM12 cells assessed as cell growth at 10 uM incubated for 48 hrs by sulforhodamine B assay; details: KM12, 48 h, read-out: Activity
[28] = tested on: MDA-MB-435; assay: Cytotoxicity against human MDA-MB-435 cells assessed as cell growth at 10 uM incubated for 48 hrs by sulforhodamine B assay; details: MDA-MB-435, 48 h, read-out: Activity
[29] = tested on: M14; assay: Cytotoxicity against human M14 cells assessed as cell growth at 10 uM incubated for 48 hrs by sulforhodamine B assay; details: M14, 48 h, read-out: Activity
[30] = Cytotoxicity against human NCI-ADR-RES cells assessed as cell growth at 10 uM incubated for 48 hrs by sulforhodamine B assay; details: read-out: Activity
[31] = Cytotoxicity against human OVCAR4 cells assessed as cell growth at 10 uM incubated for 48 hrs by sulforhodamine B assay; details: OVCAR-4, 48 h, read-out: Activity
[32] = tested on: 786-0; assay: Cytotoxicity against human 786-0 cells assessed as cell growth at 10 uM incubated for 48 hrs by sulforhodamine B assay; details: 786-0, 48 h, read-out: Activity
[33] = tested on: MCF7; assay: Cytotoxicity against human MCF7 cells assessed as cell growth at 10 uM incubated for 48 hrs by sulforhodamine B assay; details: MCF7, 48 h, read-out: Activity
[34] = tested on: T47D; assay: Cytotoxicity against human T47D cells assessed as cell growth at 10 uM incubated for 48 hrs by sulforhodamine B assay; details: read-out: Activity
[35] = tested on: MDA-MB-231; assay: Cytotoxicity against human MDA-MB-231 cells assessed as cell growth at 10 uM incubated for 48 hrs by sulforhodamine B assay; details: MDA-MB-231, 48 h, read-out: Activity
[36] = Cytotoxicity against human TK10 cells assessed as cell growth at 10 uM incubated for 48 hrs by sulforhodamine B assay; details: TK-10, 48 h, read-out: Activity

Work on `Cc1cc(=O)oc2c(C)c(O)c(-c3cc4ccc(F)cc4[nH]3)cc12` yielded a GI50 [1] of 4.42 µM, a TGI [1] of 47.7 µM and a CC50 [1] of over 100 µM. The GI50 [2] was 3.82 µM, the TGI [2] was 15 µM and the CC50 [2] was 58.4 µM. It also gave a GI50 [3] of 3.34 µM, a TGI [3] of 22.1 µM and a CC50 [3] of over 100 µM. For the same molecule, the GI50 [4] was 2.07 µM, the TGI [4] was 8.99 µM and the CC50 [4] was 75.3 µM. The GI50 [5] was 2.78 µM, the TGI [5] was 9.09 µM and the CC50 [5] was 48.9 µM. It also gave a GI50 [6] of 3.09 µM, a TGI [6] of 13.6 µM and a CC50 [6] of 63.1 µM. The CC50 [7] was over 100 µM, the GI50 [8] was 3.29 µM and the TGI [8] was 12.7 µM. For the same molecule, the CC50 [8] was 36.7 µM, the GI50 [9] was 2.28 µM and the TGI [9] was 7.02 µM. The CC50 [9] was 37.5 µM, the GI50 [10] was 3.34 µM and the TGI [10] was 16.7 µM. The CC50 [10] was 49.7 µM, the GI50 [11] was 3.88 µM and the TGI [11] was 24 µM. The CC50 [11] was over 100 µM, the GI50 [12] was 4.1 µM and the TGI [12] was 14 µM. The CC50 [12] was 42.6 µM, the GI50 [13] was 3.32 µM and the TGI [13] was 13 µM. The CC50 [13] was 48 µM, the GI50 [14] was 2.64 µM and the TGI [14] was 10 µM. It also gave a CC50 [14] of over 100 µM, a GI50 [15] of 3.53 µM and a TGI [15] of 18.4 µM. It also gave a CC50 [15] of over 100 µM, a GI50 [16] of 3.57 µM and a TGI [16] of 13.6 µM. For the same molecule, the CC50 [16] was 65.9 µM, the GI50 [17] was 3.08 µM and the TGI [17] was 19.8 µM. The CC50 [17] was over 100 µM, the GI50 [18] was 2.75 µM and the TGI [18] was 12.4 µM. It also gave a CC50 [18] of 64.1 µM, a GI50 [19] of 3.09 µM and a TGI [19] of 14.2 µM. The CC50 [19] was over 100 µM, the growth at 10 µM [20] was 26.7% and the growth at 10 µM [21] was 28.4%. The growth at 10 µM [22] was 26%, the growth at 10 µM [23] was 8.97% and the growth at 10 µM [24] was 16.7%. It also gave a growth at 10 µM [25] of 28.4%, a growth at 10 µM [26] of -9.31% and a growth at 10 µM [27] of 33.2%. The growth at 10 µM [28] was 32.4%, the growth at 10 µM [29] was 52.3% and the growth at 10 µM [30] was 20.7%. The growth at 10 µM [31] was 33.7%, the growth at 10 µM [32] was 42.2% and the growth at 10 µM [33] was 28.3%. The growth at 10 µM [34] was 27.2%, the growth at 10 µM [35] was 59.3% and the growth at 10 µM [36] was 59.9%.

With `Cc1cc(=O)oc2c(C)c(O)c(-c3ccnc(N)n3)cc12` the GI50 [1] was 8.7 µM, the TGI [1] was over 100 µM and the CC50 [1] was over 100 µM. The GI50 [2] was 3.03 µM, the TGI [2] was over 100 µM and the CC50 [2] was over 100 µM. The GI50 [3] was 9.84 µM, the TGI [3] was over 100 µM and the CC50 [3] was over 100 µM. For the same molecule, the GI50 [4] was 46 µM, the TGI [4] was over 100 µM and the CC50 [4] was over 100 µM. The GI50 [5] was 20.7 µM, the TGI [5] was over 100 µM and the CC50 [5] was over 100 µM. The GI50 [6] was 8.45 µM, the TGI [6] was over 100 µM and the CC50 [6] was over 100 µM. It also gave a GI50 [7] of 35.8 µM, a TGI [7] of over 100 µM and a CC50 [7] of over 100 µM. The GI50 [8] was over 100 µM, the TGI [8] was over 100 µM and the CC50 [8] was over 100 µM. The GI50 [9] was 37.7 µM, the TGI [9] was over 100 µM and the CC50 [9] was over 100 µM. It also gave a GI50 [10] of over 100 µM, a TGI [10] of over 100 µM and a CC50 [10] of over 100 µM. The GI50 [11] was 6.95 µM, the TGI [11] was over 100 µM and the CC50 [11] was over 100 µM. It also gave a GI50 [12] of 29.8 µM, a TGI [12] of over 100 µM and a CC50 [12] of over 100 µM. It also gave a GI50 [13] of 29.2 µM, a TGI [13] of over 100 µM and a CC50 [13] of over 100 µM. It also gave a GI50 [14] of over 100 µM, a TGI [14] of over 100 µM and a CC50 [14] of over 100 µM. It also gave a GI50 [15] of over 100 µM, a TGI [15] of over 100 µM and a CC50 [15] of over 100 µM. The GI50 [16] was 47.8 µM, the TGI [16] was over 100 µM and the CC50 [16] was over 100 µM. It also gave a GI50 [17] of 31.9 µM, a TGI [17] of over 100 µM and a CC50 [17] of over 100 µM. The GI50 [18] was 24.4 µM, the TGI [18] was over 100 µM and the CC50 [18] was over 100 µM. The GI50 [19] was over 100 µM, the TGI [19] was over 100 µM and the CC50 [19] was over 100 µM. It also gave a growth at 10 µM [20] of 46.5%, a growth at 10 µM [21] of 9.17% and a growth at 10 µM [22] of 51.5%. It also gave a growth at 10 µM [23] of 38.5%, a growth at 10 µM [24] of 40.4% and a growth at 10 µM [25] of 19.8%. It also gave a growth at 10 µM [26] of 47.4%, a growth at 10 µM [27] of 66.1% and a growth at 10 µM [28] of 55%. It also gave a growth at 10 µM [29] of 68.6%, a growth at 10 µM [30] of 57.1% and a growth at 10 µM [31] of 68.6%. The growth at 10 µM [32] was 62.1%, the growth at 10 µM [33] was 22.1% and the growth at 10 µM [34] was 53.7%. It also gave a growth at 10 µM [35] of 69% and a growth at 10 µM [36] of 61.9%.
